According to patent US9580431B2, “Inhibitors of human immunodeficiency virus replication” (priority 2013, dated 2017):

These molecules were tested on recombinant NL-Rluc virus (assay: microbe, parasite or virus in culture). Details: Human immunodeficiency virus 1, MT2, 120 h.
Type: cell-based, HIV

`Cc1nc2cc(-n3cc(Cc4ccccc4)cn3)nn2c(N2CCC(C)(C)CC2)c1[C@H](OC(C)(C)C)C(=O)O` [Example 33, (S)-2-(2-(4-Benzyl-1H-pyrazol-1-yl)-7-(4,4-dimethylpiperidin-1-yl)-5-methylpyrazolo[1,5-a]pyrimidin-6-yl)-2-(tert-butoxy)acetic acid] showed an EC50 of 11 nM.

Same assay, conditions: Human immunodeficiency virus 1, MT2, 120 h, NL-RLuc virus infecting MT-2 cells, 5 days of incubation, luciferase readout; at least 2 experiments; serum condition not given; read-out: EC50

Point of comparison: `CC1=CCN(c2c([C@H](OC(C)(C)C)C(=O)O)c(C)nc3cc(-c4ncc(Cc5ccc(F)cc5)s4)nn23)CC1` [Example 19, (S)-2-(tert-Butoxy)-2-(2-(5-(4-fluorobenzyl)thiazol-2-yl)-5-methyl-7-(4-methyl-5,6-dihydropyridin-1(2H)-yl)pyrazolo[1,5-a]pyrimidin-6-yl)acetic acid], EC50 105 nM. Against it:
- Cc1nc2cc(-c3ncc(Cc4ccc(F)cc4)s3)nn2c(C2CCC(C)(C)CC2)c1[C@H](OC(C)(C)C)C(=O)O [Example 11, (S)-2-(tert-Butoxy)-2-(7-(4,4-dimethylcyclohexyl)-2-(5-(4-fluorobenzyl)thiazol-2-yl)-5-methylpyrazolo[1,5-a]pyrimidin-6-yl)acetic acid] — within 1.5-fold, 82 nM
- Cc1cc(Cc2cnc(-c3cc4nc(C)c([C@H](OC(C)(C)C)C(=O)O)c(N5CCC(C)(C)CC5)n4n3)s2)ccc1F [Example 15, (S)-2-(tert-Butoxy)-2-(7-(4,4-dimethylpiperidin-1-yl)-2-(5-(4-fluoro-3-methylbenzyl)thiazol-2-yl)-5-methylpyrazolo[1,5-a]pyrimidin-6-yl)acetic acid] — 5.5-fold lower, 19 nM
- Cc1nc2cc(-c3ncc(Cc4ccc(F)cc4)s3)nn2c(N2CCC(C)(CO)CC2)c1[C@H](OC(C)(C)C)C(=O)O [Example 21, (S)-2-(tert-Butoxy)-2-(2-(5-(4-fluorobenzyl)thiazol-2-yl)-7-(4-(hydroxymethyl)-4-methylpiperidin-1-yl)-5-methylpyrazolo[1,5-a]pyrimidin-6-yl)acetic acid] — within 1.5-fold, 75 nM
- Cc1nc2cc(-c3ccc(Cc4ccc(F)cc4)s3)nn2c(N2CCC(C)(C)CC2)c1[C@H](OC(C)(C)C)C(=O)O [Example 25, (S)-2-(tert-Butoxy)-2-(7-(4,4-dimethylpiperidin-1-yl)-2-(5-(4-fluorobenzyl)thiophen-2-yl)-5-methylpyrazolo[1,5-a]pyrimidin-6-yl)acetic acid] — 4.6-fold lower, 23 nM
- Cc1nc2cc(-c3nc4cc(Cl)ccc4[nH]3)nn2c(-c2cc(F)c3c(c2C)CCCO3)c1[C@H](OC(C)(C)C)C(=O)O [Example 1, (2S)-2-(tert-Butoxy)-2-(2-(5-chloro-1H-benzo[d]imidazol-2-yl)-7-(8-fluoro-5-methylchroman-6-yl)-5-methylpyrazolo[1,5-a]pyrimidin-6-yl)acetic acid] — 2.2-fold lower, 47 nM
- Cc1nc2cc(-n3cc(Cc4ccccc4)c(Cl)n3)nn2c(N2CCC(C)(C)CC2)c1[C@H](OC(C)(C)C)C(=O)O [Example 38, (S)-2-(2-(4-Benzyl-3-chloro-1H-pyrazol-1-yl)-7-(4,4-dimethylpiperidin-1-yl)-5-methylpyrazolo[1,5-a]pyrimidin-6-yl)-2-(tert-butoxy)acetic acid] — 4.6-fold lower, 23 nM
- Cc1nc2cc(-c3ncc(Cc4ccc(F)cc4)s3)nn2c(N2CCC(C)(C)CC2)c1[C@H](OC(C)(C)C)C(=O)O [Example 13, (S)-2-(tert-Butoxy)-2-(7-(4,4-dimethylpiperidin-1-yl)-2-(5-(4-fluorobenzyl)thiazol-2-yl)-5-methylpyrazolo[1,5-a]pyrimidin-6-yl)acetic acid] — 7.5-fold lower, 14 nM
- C=CCOc1ccccc1Cc1cnn(-c2cc3nc(C)c([C@H](OC(C)(C)C)C(=O)O)c(N4CCC(C)(OCC=C)CC4)n3n2)c1 [Example 37, (S)-2-(7-(4-(Allyloxy)-4-methylpiperidin-1-yl)-2-(4-(2-(allyloxy)benzyl)-1H -pyrazol-1-yl)-5-methylpyrazolo[1,5-a]pyrimidin-6-yl)-2-(tert-butoxy)acetic acid] — 9.5-fold lower, 11 nM
- Cc1nc2cc(-c3ncc(Cc4ccc(F)cc4)s3)nn2c(C2=CCC(C)(C)CC2)c1[C@H](OC(C)(C)C)C(=O)O [Example 10, (S)-2-(tert-Butoxy)-2-(7-(4,4-dimethylcyclohex-1-en-1-yl)-2-(5-(4-fluorobenzyl)thiazol-2-yl)-5-methylpyrazolo[1,5-a]pyrimidin-6-yl)acetic acid] — 5.5-fold lower, 19 nM
- Cc1nc2cc(-c3ncc(Cc4ccc(F)cc4)o3)nn2c(C2=CCC(C)(C)CC2)c1[C@H](OC(C)(C)C)C(=O)O [Example 12, (S)-2-(tert-Butoxy)-2-(7-(4,4-dimethylcyclohex-1-en-1-yl)-2-(5-(4-fluorobenzyl)oxazol-2-yl)-5-methylpyrazolo[1,5-a]pyrimidin-6-yl)acetic acid] — 8.1-fold lower, 13 nM
- Cc1nc2cc(-c3ncc(CCc4ccc(F)cc4)s3)nn2c(N2CCC(C)(C)CC2)c1[C@H](OC(C)(C)C)C(=O)O [Example 16, (S)-2-(tert-Butoxy)-2-(7-(4,4-dimethylpiperidin-1-yl)-2-(5-(4-fluorophenethyl)thiazol-2-yl)-5-methylpyrazolo[1,5-a]pyrimidin-6-yl)acetic acid] — 2.8-fold lower, 38 nM
- C=CCOC1(C)CCN(c2c([C@H](OC(C)(C)C)C(=O)O)c(C)nc3cc(-c4cn(Cc5ccccc5)cn4)nn23)CC1 [Example 41, (S)-2-(7-(4-(Allyloxy)-4-methylpiperidin-1-yl)-2-(1-benzyl-1H-imidazol-4-yl)-5-methylpyrazolo[1,5-a]pyrimidin-6-yl)-2-(tert-butoxy)acetic acid] — 7-fold lower, 15 nM
- Cc1nc2cc(-c3nc4cc(Cl)ccc4n3C)nn2c(-c2cc(F)c3c(c2C)CCCO3)c1[C@H](OC(C)(C)C)C(=O)O [Example 2, (2S)-2-(tert-Butoxy)-2-(2-(5-chloro-1-methyl-1H-benzo[d]imidazol-2-yl)-7-(8-fluoro-5-methylchroman-6-yl)-5-methylpyrazolo[1,5-a]pyrimidin-6-yl)acetic acid] — 2.1-fold lower, 50 nM
- Cc1nc2cc(-c3ncc(-c4cccc(F)c4)s3)nn2c(-c2cc(F)c3c(c2C)CCCO3)c1[C@H](OC(C)(C)C)C(=O)O [Example 9, (2S)-2-(tert-Butoxy)-2-(7-(8-fluoro-5-methylchroman-6-yl)-2-(5-(3-fluorophenyl)thiazol-2-yl)-5-methylpyrazolo[1,5-a]pyrimidin-6-yl)acetic acid] — 3.8-fold lower, 28 nM
- C=CC1(C)CCN(c2c([C@H](OC(C)(C)C)C(=O)O)c(C)nc3cc(-c4ncc(Cc5ccc(F)cc5)s4)nn23)CC1 [Example 23, (S)-2-(tert-Butoxy)-2-(2-(5-(4-fluorobenzyl)thiazol-2-yl)-5-methyl-7-(4-methyl-4-vinylpiperidin-1-yl)pyrazolo[1,5-a]pyrimidin-6-yl)acetic acid] — 8.8-fold lower, 12 nM
- Cc1nc2cc(-c3ncc(Cc4ccc(F)cc4)s3)nn2c(N2CCC(C)(O)CC2)c1[C@H](OC(C)(C)C)C(=O)O [Example 18, (S)-2-(tert-Butoxy)-2-(2-(5-(4-fluorobenzyl)thiazol-2-yl)-7-(4-hydroxy-4-methylpiperidin-1-yl)-5-methylpyrazolo[1,5-a]pyrimidin-6-yl)acetic acid] — within 1.5-fold, 143 nM

Same assay, conditions: NL-RLuc virus infecting MT-2 cells, 5 days of incubation, luciferase readout; at least 2 experiments; serum condition not given; read-out: EC50

`Cc1nc2cc(N3CCC(Oc4ccccc4)C3=O)nn2c(N2CCC(C)(C)CC2)c1[C@H](OC(C)(C)C)C(=O)O` (stereo partly drawn) [Example 31, (2S)-2-(tert-Butoxy)-2-(7-(4,4-dimethylpiperidin-1 yl)-5-methyl-2-(2-oxo-3-phenoxypyrrolidin-1-yl)pyrazolo[1,5-a]pyrimidin-6-yl)acetic acid] was tested, and the EC50 was 813 nM.
